Experimental data taken from patent US20120107323A1, “KINASE PROTEIN BINDING INHIBITORS” (University of Florida, priority 2009, published 2012).

What was measured:
GST-FAK-NT2 and IGF-1Rβ = target: T1, GST-FAK-NT2 and IGF-1Rβ (Homo sapiens, UniProt Q05397); assay: Pull-down assay with purified GST-FAK-NT2 and IGF-1Rβ; details: average IC50, pulldown; read-out: IC50, decrease in binding between purified GST-FAK-NT2 and IGF-1Rβ
T1 construct: host or cells: E. coli BL21 (DE3) for GST-FAK-NT2
Description: Computational Docking The crystal structures of the N-terminal domain of FAK (PDB code 2AL6) (22) and the kinase domain of IGF-1R(PDB 1P40A) (23) were utilized for in silico molecular modeling of their interaction as previously described. The three-dimensional coordinates of compound NSC344553 (INT2-31), obtained from the database of the National Cancer Institute, Developmental Therapeutics Program (NCI/DTP), were docked onto the predicted interface of the amino-terminus of FAK (amino acids 127-243) with the intracytoplasmic portion of IGF-1R (21). […] 100 orientations were created for NSC344553 in the target site and were scored using the computer program grid-based scoring function. […] The intermolecular energies for all configurations of NSC 344553 in binding to FAK-NT2 were calculated as the sum of electrostatic and van der Waals energies. These energy terms were evaluated as correlation functions, which were computed efficiently with Fast Fourier Transforms. […] Bound proteins were boiled in 6× Laemmli buffer and analyzed by SDS-PAGE and Western blotting. […] The intensity of the bands in the western blots was measured with scion image analysis software program. […]

[1] = tested on: Miapaca-2 pancreatic cancer cells; assay: Cell viability (MTT), Miapaca-2; type: cell-based
Protocol: (§1) Cell viability (MTT) and CFSE Proliferation assay: Cells were plated in 96-well plates and let adhere overnight. After cell treatment, cell viability was measured by 3-(4,5-dimethylthiazol-2-yl)-2,5-diphenyl tetrazolium bromide (MTT) assay (CellTiter 96® Aqueous, Promega, Madison, Wis.).
Cell viability and detachment assays: After cells were treated with siRNA transfection, cell viability was measured by 3-(4,5-dimethylthiazol2-yl)-2,5-diphenyl tetrazolium bromide (MTT) assay (CellTiter 96® AQueous, Promega, Madison, Wis.). Briefly, 20 μl of the tetrazolium compound was added to each well. The cells were then incubated at 37° C. for 1 h. The plate was read at 490 nm with a plate reader to determine the viability. In detachment assays, detached and attached cells were harvested separately and counted in a hemocytometer. The percentage of detachment was calculated by dividing the number of detached cells by the total number of cells. Apoptosis assays: After treatment, attached and detached cells were collected, counted and prepared for terminal uridine deoxynucleotidyl transferase (TUNEL) assay by utilizing an APO-BRDU kit (BD Pharmingen, San Diego, Calif.) according to the manufacturer's instructions. Stained cells were analyzed with a fluorescence-activated cell sorting-Calibur flow cytometer (BD Biosciences). […] Apoptotic cells were also analyzed by Hoechst staining. […]

[2] = tested on: FAK +/+ and FAK −/− mouse embryonic fibroblast; assay: MTT assay on FAK wildtype and null fibroblasts; type: cell-based
Protocol: as §1
Cell proliferation assay: Cell proliferation assay (Promega) using CellTiter 96 aqueous one solution was performed by adding a small amount of the One Solution Reagent directly to culture wells, incubating for 1-4 hours and then recording absorbance at 490 nm with a spectrophotometric plate reader. The quantity of formazan product as measured by the amount of 490 nm absorbance was directly proportional to the number of living cells in culture.
Cell viability and detachment assays: After cells were treated with siRNA transfection, cell viability was measured by 3-(4,5-dimethylthiazol2-yl)-2,5-diphenyl tetrazolium bromide (MTT) assay (CellTiter 96® AQueous, Promega, Madison, Wis.). Briefly, 20 μl of the tetrazolium compound was added to each well. The cells were then incubated at 37° C. for 1 h. The plate was read at 490 nm with a plate reader to determine the viability. In detachment assays, detached and attached cells were harvested separately and counted in a hemocytometer. The percentage of detachment was calculated by dividing the number of detached cells by the total number of cells. Apoptosis assays: After treatment, attached and detached cells were collected, counted and prepared for terminal uridine deoxynucleotidyl transferase (TUNEL) assay by utilizing an APO-BRDU kit (BD Pharmingen, San Diego, Calif.) according to the manufacturer's instructions. Stained cells were analyzed with a fluorescence-activated cell sorting-Calibur flow cytometer (BD Biosciences). Calculation of the percentage of apoptotic cells in the sample was completed with CellQuest software (BD Biosciences). Apoptotic cells were also analyzed by Hoechst staining. Hoechst 33342 ([…]) was added to the fixed cells and the specimens were mounted on glass coverslips. The slides were viewed under the Zeiss microscope for apoptotic nuclei. The percent of apoptotic cells was calculated as the ratio of apoptotic cells to total number of cells.

T1 sequence (Q05397 127-243): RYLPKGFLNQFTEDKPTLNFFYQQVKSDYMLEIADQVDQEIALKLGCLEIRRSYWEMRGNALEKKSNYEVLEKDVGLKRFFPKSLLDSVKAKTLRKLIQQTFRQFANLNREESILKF

`CSc1ncnc2c1ccn2C1O[C@H](COP(=O)(O)O)[C@@H](O)[C@H]1O` (stereo partly drawn) [INT2-31, 4-(Methylthio)-7-(5-O-phosphono-D-ribofuranosyl)-{7H-Pyrrolo[2,3-d]pyrimidine}] was tested, and the IC50 (GST-FAK-NT2 and IGF-1Rβ) was 3.96 µM, the IC50 ([1]; Homo sapiens, MIA PaCa-2, Miapaca-2, 72 hours, read-out: IC50 of INT2-31, cell viability) was 4.73 µM and the “cell viability (in words)” value ([1]; MiaPaCa-2, 72 hours) was “inhibits the cell viability”. For the same compound, the “proliferation of FAK+/+ fibroblast cells” value ([2]; 0.05 μM, 72-hour treatment) was “reduced the proliferation”, the “proliferation of FAK−/− cells” value ([2]; 0.05 μM, 72-hour treatment) was “no effect” and the “effect on FAK wildtype compared to null fibroblasts” value ([2]; MTT, p<0.05) was “significantly more sensitive”.
